# In the METLIN SMRT retention time set (Domingo-Almenara et al. 2019):
# Experiment: gradient 5% acetonitrile 3 min, to 50% in 2 min, to 85% in 15 min, held 3 min, 100 µL/min
# Settings: column: Zorbax Extend-C18 2.1 x 50 mm; eluents: water / acetonitrile, 0.1% formic acid
# Summary of the method: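 Retention times of pure standards were taken from adduct peaks that were selected by computer and manually inspected. Over 3 months, mixtures of ~100 molecules were run by HPLC–quadrupole time-of-flight mass spectrometry in positive and negative ionization mode. The Zorbax Extend-C18 column (2.1 × 50 mm, 1.8 μm) ran at 100 μL/min in water and acetonitrile, each containing 0.1% formic acid, with 40 μL dead volume and 900 μL dwell volume.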
row,Structure (SMILES),RP-LC retention time [s]
1,Cc1nnc(N2CCCC(C(=O)NCc3ccccc3F)C2)c2nn(-c3ccc(Cl)cc3)c(C)c12 (configuration not stated),771
2,CCCNC(=O)c1nc2cc(C)c(C)cc2[nH]c1=O,671
3,COc1ccc(Cl)cc1NC(=O)C1CCCN1S(=O)(=O)c1cc2c(cc1C)NC(=O)C(C)O2 (configuration not stated),909
4,CS(=O)(=O)N[C@H]1C[C@@H]2C[C@H]1CN2C(=O)c1ccc(C(F)(F)F)s1,663
5,CN(CCc1noc(-c2ccc(C(=O)N3CCOCC3)cc2)n1)C(=O)C1CCCCC1,752
6,CC(C)n1cnnc1CC1CN(C(=O)Nc2ccc(Cl)cc2C(F)(F)F)C1,693
7,Cc1noc(C)c1S(=O)(=O)N1CCC2(CC1)CN(c1ccccc1)C2=O,924
8,O=C(NCc1ccccc1Cl)C(=O)NCC(c1ccc2c(c1)OCO2)N1CCOCC1 (configuration not stated),678
9,CCc1noc(NC(C)=O)c1-c1ccc(C)c(S(=O)(=O)NC2CCC(C)CC2)c1 (configuration not stated),937
10,CC1(C)C(=O)Nc2ccc(S(=O)(=O)N3CCC(c4noc(-c5ccccn5)n4)C3)cc21 (configuration not stated),705
11,O=C(Nc1ccccc1)N1CCC(N(C(=O)C2CC2)C2CCOCC2)CC1,697
12,CCc1ccccc1NC(=O)C1CCCN1S(=O)(=O)c1cc2c(cc1C)NC(=O)CO2 (configuration not stated),821
13,C/C(O)=C(\C#N)C(=O)Nc1ccc(C(F)(F)F)cc1,858
14,O=C(C(=O)N1CCOCC1)c1c(-c2ccccc2)cc2ccccn12,798
15,O=S(=O)(c1cc(-c2nnc(C3CCC3)o2)co1)N1CCN(c2cccc(Cl)c2)CC1,1120
16,CC(C)=C(c1ccc(Cl)cc1)c1c(N)ncnc1N,705
17,C[C@@H]1CCC2[C@](C)(CO)[C@@H](O)CC[C@]2(C)[C@]12CCC(CO)(CCO)O2 (some centres not stated),829
18,c1ccc2c(-c3nc(C4CC4)no3)nnc(NC3CCCCC3)c2c1,775
19,CCOC(=O)N1CCN(C(=O)c2cccc([N+](=O)[O-])c2C)CC1,695
20,O=C(N[C@H]1C[C@@H]2C[C@H]1N(C(=O)c1ccccc1Cl)C2)c1cccnc1,602

row,Structure (SMILES),RP-LC retention time [s]
1,Cc1noc(-c2ccccc2OC2CCNC2)n1 (configuration not stated),590
2,O=C1CC(c2nc(-c3ccc4c(c3)OCO4)no2)CN1c1ccc(F)cc1 (configuration not stated),923
3,Cc1ccccc1Nc1c(-c2ccccc2O)nc2ccccn12,701
4,Cc1noc(C)c1CN1CCN(C(=O)c2cc(F)cc(F)c2)CC1,563
5,C[C@@H](CN1CCC(Cc2ccccc2)CC1)[C@@H](O)c1ccc(O)cc1,737
6,O=c1[nH]cc(S(=O)(=O)N2CCCCC2)c(=O)[nH]1,604
7,O=C(Nc1ccc2sccc2c1)c1ccc(Cl)s1,996
8,O=C(Nc1ccc2c(c1)OCCO2)N1C[C@@H]2C[C@H]1C[C@@H]2NS(=O)(=O)c1ccccc1,678
9,CN(C)CC1(O)CCC2(CCN(Cc3ccc(Cl)c(F)c3)CC2)CC1,658
10,O=C(Nc1nnc(SCc2cccnc2)s1)c1cc(C2CC2)on1,598
11,Cn1nc(-c2nnc(-c3ccccc3F)o2)c2c1CCN(S(=O)(=O)c1cccc(C#N)c1)C2,885
12,Cc1cc(C)cc(Nc2c(-c3cccc(O)c3)nc3cnccn23)c1,763
13,Cc1cccc(S(=O)(=O)N2CCC(c3noc(-c4cccc(F)c4)n3)CC2)c1,1110
14,Cc1ccc(Sc2nccnc2N2CCC(C(=O)N3CCN(c4ccc(F)cc4)CC3)CC2)cc1,1200
15,CCCS(=O)(=O)N1CCC(Oc2nccnc2N2CCOCC2)C1 (configuration not stated),761
16,O=C(c1ccco1)N1CCN(C(=O)c2nc(-c3ccc(Cl)cc3)n3c2CCCCC3)CC1,741
17,COc1cc2c3cc1Oc1c(OC)c(OC)cc4c1C(Cc1ccc(cc1)Oc1cc(ccc1O)CC3N(C)CC2)N(C)CC4 (configuration not stated),579
18,CC(C)Oc1ccc(CN2CCn3c(nn(CC4CC4)c3=O)C2)cc1,761
19,O=C(NCc1ccc2c(c1)OCO2)C1COC2(CCN(C(=O)C3CC3)CC2)N1C(=O)c1ccccc1 (configuration not stated),692
20,CCc1ccc(NC(=O)CCS(=O)(=O)c2ccc3c(c2)CCCN3C(C)=O)cc1,808

# Continued, values first:
row,RP-LC retention time [s],Structure (SMILES)
1,884,COc1ccc(-c2nnc(-c3ccc(Cl)c(S(=O)(=O)N4CCOCC4)c3)o2)cc1OC
2,855,CCc1noc(NC(C)=O)c1-c1ccc(C)c(S(=O)(=O)NCCc2ccccc2)c1
3,996,Cc1ccc(OCC(=O)N(Cc2ccc(Br)o2)C2CCS(=O)(=O)C2)cc1C (configuration not stated)
4,936,COc1cc(OC)c(NC(=O)Cc2nnc(-c3ccc4ncccc4c3)o2)cc1Cl
5,738,COc1ccc(-c2cn3ccn(-c4ccc(F)cc4)c(=O)c3n2)cc1OC
6,780,COc1ccc(NC(=O)c2ccc(-n3cnc(NC(=O)C4CC4)c3)cc2)cc1Cl
7,858,Cc1ccc(N2CCC(NC(=O)c3cc(F)cc(F)c3)C2=O)cc1 (configuration not stated)
8,646,COc1ccc(-c2cc3c(=O)n(Cc4noc(CN5CCCC5)n4)ccn3n2)cc1
9,895,CCN1C(=O)C(C)(C(=O)Nc2ccc(OC)c(Cl)c2)Oc2cccnc21 (configuration not stated)
10,736,Cn1ccc2c(cc(C(=O)NCCCc3ccccc3)n2C)c1=O
11,601,Cc1nn(CC(=O)NCCN(C)C)c(=O)c2nc(-c3ccccc3)sc12
12,920,Cc1ccc(NC(=O)Cn2nc(N(C)C)c3ccccc3c2=O)cc1F
13,704,Cc1ccc(C)c(NC(=O)NCCc2cn(C)c3ncccc23)c1
14,667,COc1ccc(N2CCN(c3ncc4c(n3)CCN(Cc3ccccc3Cl)C4)CC2)cc1
15,1180,COc1ccc(-c2csc3c(=O)n(CC(=O)OC(C)(C)C)cnc23)cc1
16,710,CCOc1cccc2sc(N(CCN(C)C)C(=O)c3ccco3)nc12
17,831,COc1ccc(-c2nc(C)c(CCNS(=O)(=O)c3ccc4c(c3)OCCO4)s2)cc1
18,647,COc1ccc(-c2nnc3n2CCN(Cc2ccc(C)o2)C3)cc1
19,800,COc1ccccc1NC(=O)N1CCCC1c1cc(C)on1 (configuration not stated)
20,788,Cc1ccc(C)c(C(=O)Nc2cnn(-c3ncc(N(C)C)cn3)c2)c1
21,869,O=C(c1ccoc1)N1CCCC1c1nc(-c2ccc(F)cc2F)no1 (configuration not stated)
22,912,Cc1sc2ccn(Cc3ccc(F)cc3)c(=O)c2c1C(=O)NCc1ccco1
23,1330,Cc1ccc(-c2csc(Nc3ccc(Br)cn3)n2)c(C)c1
24,972,Cc1cccc(OCC(=O)Nc2ccc3c(c2)Sc2ncccc2C(=O)N3C(C)C)c1

row,RP-LC retention time [s],Structure (SMILES)
1,784,CSc1ccc(CNC(=O)c2c(C)sc3ccn(C)c(=O)c23)cc1
2,884,COc1cccc(NC(=O)N2CCc3nc(-c4ccccc4)ncc3C2)c1
3,997,Cc1ccc(NC(=O)Cn2cc(-c3ccccc3)c(N(C)C)n2)c(F)c1
4,965,CCOC(=O)c1cccc(NC2=NS(=O)(=O)C(c3ccc(OC)cc3)=C2C)c1
5,934,CCN1C(=O)COc2ccc(-c3csc(NC(=O)CCC4CCCCC4)n3)cc21
6,877,COc1ccc(C(=O)Nc2nc(-c3ccc4c(c3)NC(=O)C(C)O4)cs2)cc1 (configuration not stated)
7,995,CC(C)c1noc(-c2cc(=O)n(CC(=O)Nc3ccc(F)cc3)c3ccccc23)n1
8,950,O=C(Cn1nc(N2CCCC2)c2ccccc2c1=O)Nc1ccc(F)c(F)c1
9,641,COc1ccc(OC)c(CN2C(=O)c3ccccc3C2C(=O)NCC2CCCO2)c1 (configuration not stated)
10,858,CCN1C(=O)CCc2cc(NS(=O)(=O)c3ccc(C(F)(F)F)cc3)ccc21
11,920,COc1ccc(NC(=O)N2CC=C(c3cn(C(C)C)c4ncccc34)CC2)cc1F
12,1300,CCc1ccc(-n2nc(C)c3c(C(F)(F)F)cc(OCC(=O)NCc4ccco4)nc32)cc1
13,784,Cc1nn2c(CNC(=O)c3n[nH]c4c3CCCC4)c(-c3ccccc3)nc2s1
14,615,CCOC(=O)C1=C(CN2CCN(c3ccccn3)CC2)NC(=O)NC1c1cccc(OC)c1OC (configuration not stated)
15,879,COc1cccc(-n2c(N3CCCC(C(=O)NCCc4cccs4)C3)nc3ccsc3c2=O)c1 (configuration not stated)
16,886,CC1(C)C(=O)N(CC(=O)Nc2cccc(F)c2)c2ccccc21
17,994,CCCOC(=O)C1=C(C)NC2=C(C(=O)C(C(=O)OC)C(C)C2)C1c1cccc(F)c1 (configuration not stated)
18,1140,COc1ccc(N2CC(c3noc(-c4ccc(C(C)(C)C)cc4)n3)CC2=O)cc1OC (configuration not stated)
19,715,COCc1nn(CC2CC2)c2c1CN(C(=O)c1ccc(OC)cc1)CC2
20,688,COc1ccccc1OCCNC(=O)C1CC(=O)N(c2n[nH]c3cccc(F)c23)C1 (configuration not stated)
21,1350,CCCCCn1c(=O)c2ccccc2n(Cc2nc(-c3cccc(OCC)c3)no2)c1=O
22,902,CCn1cc(-c2nc(CC(=O)Nc3ccc(F)c(C)c3)cs2)c2cccnc21
23,620,COCc1nncn1C1CN(C(=O)Cc2cc(OC)cc(OC)c2)C1
